As usually defined, the EC50 is the concentration at which the effect is half-maximal. High values mean lower potency in that assay, low ones higher potency in that assay.

The target of the assay is SARS-CoV-2 RdRp (nsp12-nsp7-nsp8 complex) (Severe acute respiratory syndrome coronavirus 2, UniProt P0DTD1). The assay is described as follows: biochemical.
`O=c1ccn([C@@H]2O[C@H](COP(=O)(O)OP(=O)(O)OP(=O)(O)O)C[C@H]2O)c(=O)[nH]1` [3’-dUTP] showed an EC50 of 751 nM.

On to `Cc1cn([C@@H]2O[C@H](COP(=O)(O)OP(=O)(O)OP(=O)(O)O)C[C@H]2O)c(=O)[nH]c1=O` [5-methyl-3’-dUTP], for which a half-maximal effect (EC50) was put at 107 nM. Next, `O=c1ccn([C@@H]2O[C@H](COP(=O)(O)OP(=O)(O)OP(=O)(O)O)[C@@H](O)[C@H]2O)c(=O)[nH]1` [UTP]: 47.9 nM.
